From ChEMBL document CHEMBL5649168, “Discovery of a selective catalytic p300/CBP inhibitor that targets lineage-specific tumours” (Nature, 2017)
Calls of active or inactive are those of the source. No cut-off for these calls is given here.

Key:
[1] = Toxicity in CB17 SCID mouse xenografted with human LuCaP-77 CR cell assessed as body weight loss at 100 mg/kg, ip BID administered for 7 days relative to control; type: organism-based; conditions: in vivo, 168 h, time 7 day
[2] = biological target: Bromodomain testis-specific protein (Homo sapiens, UniProt Q58F21); assay: Inhibition of BRDT (unknown origin)
[3] = biological target: Tyrosine-protein kinase BTK (Homo sapiens, UniProt Q06187); assay: Inhibition of BTK (unknown origin)
[4] = biological target: Calcium/calmodulin-dependent protein kinase type 1D (Homo sapiens, UniProt Q8IU85); assay: Inhibition of CAMK1D (unknown origin)
[5] = biological target: Calcium/calmodulin-dependent protein kinase type II subunit alpha (Homo sapiens, UniProt Q9UQM7); assay: Inhibition of CAMK2A (unknown origin)
[6] = Inhibition of CDK9/Cyclin K (unknown origin); parameters: species or system Homo sapiens
[7] = biological target: Macrophage colony-stimulating factor 1 receptor (Homo sapiens, UniProt P07333); assay: Inhibition of CSF1R (unknown origin)
[8] = biological target: Epithelial discoidin domain-containing receptor 1 (Homo sapiens, UniProt Q08345); assay: Inhibition of DDR1 (unknown origin)
[9] = biological target: Glycogen synthase kinase-3 alpha (Homo sapiens, UniProt P49840); assay: Inhibition of Gsk3alpha (unknown origin)
[10] = biological target: Glycogen synthase kinase-3 beta (Homo sapiens, UniProt P49841); assay: Inhibition of Gsk3beta (unknown origin)
[11] = biological target: Tyrosine-protein kinase JAK2 (Homo sapiens, UniProt O60674); assay: Inhibition of JAK2 (unknown origin)
[12] = biological target: Dual specificity mitogen-activated protein kinase kinase 3 (Homo sapiens, UniProt P46734); assay: Inhibition of MAP2K3 (unknown origin)
[13] = biological target: Mitogen-activated protein kinase kinase kinase 10 (Homo sapiens, UniProt Q02779); assay: Inhibition of MAP3K10 (unknown origin)
[14] = biological target: Protein kinase C theta type (Homo sapiens, UniProt Q04759); assay: Inhibition of PKCtheta (unknown origin)
[15] = biological target: Rho-associated protein kinase 2 (Homo sapiens, UniProt O75116); assay: Inhibition of Rock2 (unknown origin)
[16] = biological target: Proto-oncogene tyrosine-protein kinase Src (Homo sapiens, UniProt P12931); assay: Inhibition of Src (unknown origin)
[17] = tested on: NCI-H23; assay: Antiproliferative activity against human NCI-H23 cells assessed as inhibition of cell viability incubated for 3 to 5 days by Celltiter-Glo luminescent assay; type: functional, cell-based
[18] = tested on: NCI-H1373; assay: Antiproliferative activity against human NCI-H1373 cells assessed as inhibition of cell viability incubated for 3 to 5 days by Celltiter-Glo luminescent assay; type: functional, cell-based
[19] = tested on: NCI-H2444; assay: Antiproliferative activity against human NCI-H2444 cells assessed as inhibition of cell viability incubated for 3 to 5 days by Celltiter-Glo luminescent assay; type: functional, cell-based
[20] = tested on: HCC2935; assay: Antiproliferative activity against human HCC2935 cells assessed as inhibition of cell viability incubated for 3 to 5 days by Celltiter-Glo luminescent assay; type: functional, cell-based
[21] = tested on: CHL-1; assay: Antiproliferative activity against human CHL-1 cells assessed as inhibition of cell viability incubated for 3 to 5 days by Celltiter-Glo luminescent assay; type: functional, cell-based
[22] = tested on: SK-MEL-1; assay: Antiproliferative activity against human SK-MEL-1 cells assessed as inhibition of cell viability incubated for 3 to 5 days by Celltiter-Glo luminescent assay; type: functional, cell-based
[23] = tested on: COLO-679; assay: Antiproliferative activity against human COLO-679 cells assessed as inhibition of cell viability incubated for 3 to 5 days by Celltiter-Glo luminescent assay; type: functional, cell-based
[24] = tested on: A-375; assay: Antiproliferative activity against human A-375 cells assessed as inhibition of cell viability incubated for 3 to 5 days by Celltiter-Glo luminescent assay; type: functional, cell-based
[25] = tested on: NCI-H146; assay: Antiproliferative activity against human NCI-H146 cells assessed as inhibition of cell viability incubated for 3 to 5 days by Celltiter-Glo luminescent assay; type: functional, cell-based
[26] = tested on: NCI-H1417; assay: Antiproliferative activity against human NCI-H1417 cells assessed as inhibition of cell viability incubated for 3 to 5 days by Celltiter-Glo luminescent assay; type: functional, cell-based
[27] = tested on: COR-L47; assay: Antiproliferative activity against human COR-L47 cells assessed as inhibition of cell viability incubated for 3 to 5 days by Celltiter-Glo luminescent assay; type: functional, cell-based
[28] = tested on: MDA-MB-157; assay: Antiproliferative activity against human MDA-MB-157 cells assessed as inhibition of cell viability incubated for 3 to 5 days by Celltiter-Glo luminescent assay; type: functional, cell-based
[29] = tested on: HCC1599; assay: Antiproliferative activity against human HCC1599 cells assessed as inhibition of cell viability incubated for 3 to 5 days by Celltiter-Glo luminescent assay; type: functional, cell-based
[30] = tested on: L-363; assay: Antiproliferative activity against human L-363 cells assessed as inhibition of cell viability incubated for 3 to 5 days by Celltiter-Glo luminescent assay; type: functional, cell-based
[31] = tested on: NU-DUL-1; assay: Antiproliferative activity against human NU-DUL-1 cells assessed as inhibition of cell viability incubated for 3 to 5 days by Celltiter-Glo luminescent assay; type: functional, cell-based
[32] = tested on: Toledo; assay: Antiproliferative activity against human Toledo cells assessed as inhibition of cell viability incubated for 3 to 5 days by Celltiter-Glo luminescent assay; type: functional, cell-based
[33] = tested on: ULA; assay: Antiproliferative activity against human ULA cells assessed as inhibition of cell viability incubated for 3 to 5 days by Celltiter-Glo luminescent assay; type: functional, cell-based
[34] = tested on: SUD4; assay: Antiproliferative activity against human SU-DHL-4 cells assessed as inhibition of cell viability incubated for 3 to 5 days by Celltiter-Glo luminescent assay; type: functional, cell-based
[35] = tested on: SU-DHL10; assay: Antiproliferative activity against human Su-DHL-10 cells assessed as inhibition of cell viability incubated for 3 to 5 days by Celltiter-Glo luminescent assay; type: functional, cell-based
[36] = tested on: U-2940; assay: Antiproliferative activity against human U-2940 cells assessed as inhibition of cell viability incubated for 3 to 5 days by Celltiter-Glo luminescent assay; type: functional, cell-based
[37] = tested on: U2932; assay: Antiproliferative activity against human U2932 cells assessed as inhibition of cell viability incubated for 3 to 5 days by Celltiter-Glo luminescent assay; type: functional, cell-based
[38] = tested on: Rec1; assay: Antiproliferative activity against human REC1 cells assessed as inhibition of cell viability incubated for 3 to 5 days by Celltiter-Glo luminescent assay; type: functional, cell-based
[39] = tested on: OCI-AML2; assay: Antiproliferative activity against human OCI-AML2 cells assessed as inhibition of cell viability incubated for 3 to 5 days by Celltiter-Glo luminescent assay; type: functional, cell-based
[40] = tested on: U-937; assay: Antiproliferative activity against human U937 cells assessed as inhibition of cell viability incubated for 3 to 5 days by Celltiter-Glo luminescent assay; type: functional, cell-based
[41] = biological target: Histone acetyltransferase p300 (Homo sapiens, UniProt Q09472)
Description: Binding affinity to p300-BHC (unknown origin) assessed as change in melting temperature in presence of Lys-CoA by sypro orange dye based thermal shift assay

[42] = tested on: LuCaP-77 CR cell; conditions: Homo sapiens, dose 100.0 mg/kg, time 7.0 day
[43] = in vivo; conditions: CB17 SCID, mouse, brain/plasma, po, 500 mg/kg
Description: Ratio of drug concentration in brain to plasma in CB17 SCID mouse xenografted with LuCaP-77 CR cell at 500 mg/kg, po measured after 24 hrs

Sequence of Macrophage colony-stimulating factor 1 receptor (P07333 whole entry, the tested form may be a part): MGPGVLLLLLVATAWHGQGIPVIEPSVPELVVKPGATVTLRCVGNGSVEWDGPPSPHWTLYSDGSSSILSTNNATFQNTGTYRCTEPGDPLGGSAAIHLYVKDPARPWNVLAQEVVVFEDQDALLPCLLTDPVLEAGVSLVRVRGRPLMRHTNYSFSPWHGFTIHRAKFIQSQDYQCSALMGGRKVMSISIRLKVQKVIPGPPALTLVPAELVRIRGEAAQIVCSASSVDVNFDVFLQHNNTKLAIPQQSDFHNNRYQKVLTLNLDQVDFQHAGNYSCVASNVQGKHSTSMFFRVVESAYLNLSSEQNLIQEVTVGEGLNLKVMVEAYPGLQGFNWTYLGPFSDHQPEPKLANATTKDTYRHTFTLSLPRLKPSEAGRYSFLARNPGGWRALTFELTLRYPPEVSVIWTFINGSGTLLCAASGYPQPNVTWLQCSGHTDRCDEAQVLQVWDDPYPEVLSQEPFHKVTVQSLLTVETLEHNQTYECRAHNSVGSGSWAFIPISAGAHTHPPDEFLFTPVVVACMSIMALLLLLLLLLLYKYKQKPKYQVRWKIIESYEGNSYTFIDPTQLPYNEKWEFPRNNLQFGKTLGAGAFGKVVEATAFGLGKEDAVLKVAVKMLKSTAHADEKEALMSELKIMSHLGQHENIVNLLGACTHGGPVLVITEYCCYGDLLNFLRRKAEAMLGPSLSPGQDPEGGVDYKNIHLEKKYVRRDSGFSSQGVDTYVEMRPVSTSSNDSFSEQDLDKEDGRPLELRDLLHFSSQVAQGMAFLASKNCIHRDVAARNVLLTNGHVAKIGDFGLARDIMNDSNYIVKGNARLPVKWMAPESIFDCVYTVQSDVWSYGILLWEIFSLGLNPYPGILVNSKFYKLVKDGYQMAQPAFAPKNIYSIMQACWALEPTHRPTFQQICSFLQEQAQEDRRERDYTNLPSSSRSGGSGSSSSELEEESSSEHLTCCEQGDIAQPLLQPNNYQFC
Sequence of Rho-associated protein kinase 2 (O75116 whole entry): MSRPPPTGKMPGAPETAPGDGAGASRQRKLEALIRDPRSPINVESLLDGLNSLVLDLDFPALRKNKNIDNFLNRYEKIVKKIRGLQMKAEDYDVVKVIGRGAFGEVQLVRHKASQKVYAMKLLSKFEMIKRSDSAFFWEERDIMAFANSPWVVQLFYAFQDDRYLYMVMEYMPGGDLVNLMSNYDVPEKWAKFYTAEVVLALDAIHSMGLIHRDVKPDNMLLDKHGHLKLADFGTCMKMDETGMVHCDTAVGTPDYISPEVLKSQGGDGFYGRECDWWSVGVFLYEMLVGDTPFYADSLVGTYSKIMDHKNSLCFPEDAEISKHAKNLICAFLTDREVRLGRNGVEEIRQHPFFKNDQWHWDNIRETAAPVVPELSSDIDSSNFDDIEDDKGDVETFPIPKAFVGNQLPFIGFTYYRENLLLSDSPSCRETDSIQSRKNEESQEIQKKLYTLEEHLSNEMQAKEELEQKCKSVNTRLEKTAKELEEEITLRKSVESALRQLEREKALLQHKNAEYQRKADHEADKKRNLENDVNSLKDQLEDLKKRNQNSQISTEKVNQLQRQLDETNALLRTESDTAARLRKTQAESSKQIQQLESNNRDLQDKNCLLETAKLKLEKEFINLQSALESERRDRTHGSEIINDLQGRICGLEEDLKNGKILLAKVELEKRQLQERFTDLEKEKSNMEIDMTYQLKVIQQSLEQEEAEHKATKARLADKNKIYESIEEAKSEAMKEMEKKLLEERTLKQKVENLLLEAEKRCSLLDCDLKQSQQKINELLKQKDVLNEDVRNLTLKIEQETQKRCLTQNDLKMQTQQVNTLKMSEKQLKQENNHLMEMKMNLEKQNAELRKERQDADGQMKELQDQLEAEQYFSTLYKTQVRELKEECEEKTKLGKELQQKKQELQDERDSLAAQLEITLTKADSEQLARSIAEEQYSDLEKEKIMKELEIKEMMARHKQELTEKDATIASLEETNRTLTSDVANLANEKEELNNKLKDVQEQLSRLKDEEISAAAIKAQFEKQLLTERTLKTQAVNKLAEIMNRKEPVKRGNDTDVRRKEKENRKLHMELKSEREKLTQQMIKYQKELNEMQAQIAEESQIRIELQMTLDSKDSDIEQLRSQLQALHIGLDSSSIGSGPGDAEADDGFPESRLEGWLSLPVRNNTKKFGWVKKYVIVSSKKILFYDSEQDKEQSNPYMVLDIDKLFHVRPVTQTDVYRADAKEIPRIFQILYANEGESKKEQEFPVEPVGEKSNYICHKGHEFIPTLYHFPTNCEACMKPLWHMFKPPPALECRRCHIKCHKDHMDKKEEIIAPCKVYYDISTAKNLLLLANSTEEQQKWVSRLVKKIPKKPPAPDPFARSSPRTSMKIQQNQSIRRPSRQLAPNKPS
Sequence of Tyrosine-protein kinase BTK (Q06187 whole entry): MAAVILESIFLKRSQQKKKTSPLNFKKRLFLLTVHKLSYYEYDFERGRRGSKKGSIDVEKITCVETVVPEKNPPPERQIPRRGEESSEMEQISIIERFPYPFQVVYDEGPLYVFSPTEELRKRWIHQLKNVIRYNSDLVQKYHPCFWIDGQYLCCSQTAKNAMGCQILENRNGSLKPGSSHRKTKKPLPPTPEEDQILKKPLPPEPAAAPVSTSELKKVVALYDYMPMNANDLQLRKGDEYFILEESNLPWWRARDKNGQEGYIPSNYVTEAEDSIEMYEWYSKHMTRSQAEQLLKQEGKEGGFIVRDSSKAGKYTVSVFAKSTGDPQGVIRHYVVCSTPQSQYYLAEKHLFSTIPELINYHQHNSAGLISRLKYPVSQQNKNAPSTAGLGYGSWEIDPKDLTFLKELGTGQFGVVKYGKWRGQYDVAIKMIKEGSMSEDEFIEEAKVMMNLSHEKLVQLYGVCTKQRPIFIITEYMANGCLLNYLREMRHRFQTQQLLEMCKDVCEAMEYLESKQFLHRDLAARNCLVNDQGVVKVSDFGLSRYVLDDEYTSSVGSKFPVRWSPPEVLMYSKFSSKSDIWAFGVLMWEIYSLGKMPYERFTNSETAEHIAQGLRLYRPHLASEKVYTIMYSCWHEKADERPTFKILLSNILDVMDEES
Sequence of Protein kinase C theta type (Q04759 whole entry): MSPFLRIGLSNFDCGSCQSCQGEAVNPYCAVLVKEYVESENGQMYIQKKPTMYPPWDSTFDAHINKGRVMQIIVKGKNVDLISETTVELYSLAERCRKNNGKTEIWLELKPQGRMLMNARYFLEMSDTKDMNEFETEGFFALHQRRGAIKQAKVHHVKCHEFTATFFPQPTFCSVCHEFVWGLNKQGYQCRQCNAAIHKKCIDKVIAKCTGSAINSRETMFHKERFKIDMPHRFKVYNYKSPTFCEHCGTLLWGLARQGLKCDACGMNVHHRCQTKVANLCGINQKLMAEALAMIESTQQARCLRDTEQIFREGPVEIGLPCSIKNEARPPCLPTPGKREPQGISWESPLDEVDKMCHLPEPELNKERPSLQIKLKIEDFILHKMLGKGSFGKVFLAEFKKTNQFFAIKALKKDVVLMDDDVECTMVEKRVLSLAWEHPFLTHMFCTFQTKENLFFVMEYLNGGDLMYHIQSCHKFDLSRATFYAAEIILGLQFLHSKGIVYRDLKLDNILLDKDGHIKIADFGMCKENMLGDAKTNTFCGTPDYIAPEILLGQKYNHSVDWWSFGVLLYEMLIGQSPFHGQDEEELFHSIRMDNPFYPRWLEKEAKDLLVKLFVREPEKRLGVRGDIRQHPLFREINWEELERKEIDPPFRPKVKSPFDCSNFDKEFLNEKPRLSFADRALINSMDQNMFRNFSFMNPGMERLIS
Sequence of Dual specificity mitogen-activated protein kinase kinase 3 (P46734 whole entry): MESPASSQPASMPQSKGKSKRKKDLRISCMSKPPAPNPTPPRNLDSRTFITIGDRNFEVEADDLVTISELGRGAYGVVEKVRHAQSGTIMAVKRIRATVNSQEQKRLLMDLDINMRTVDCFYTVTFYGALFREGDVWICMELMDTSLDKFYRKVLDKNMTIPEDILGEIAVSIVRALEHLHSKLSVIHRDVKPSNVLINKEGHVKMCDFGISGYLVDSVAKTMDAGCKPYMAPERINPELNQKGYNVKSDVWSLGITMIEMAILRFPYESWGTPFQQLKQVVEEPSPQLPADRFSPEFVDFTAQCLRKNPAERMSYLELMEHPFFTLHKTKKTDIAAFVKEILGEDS
Sequence of Epithelial discoidin domain-containing receptor 1 (Q08345 whole entry, the tested form may be a part): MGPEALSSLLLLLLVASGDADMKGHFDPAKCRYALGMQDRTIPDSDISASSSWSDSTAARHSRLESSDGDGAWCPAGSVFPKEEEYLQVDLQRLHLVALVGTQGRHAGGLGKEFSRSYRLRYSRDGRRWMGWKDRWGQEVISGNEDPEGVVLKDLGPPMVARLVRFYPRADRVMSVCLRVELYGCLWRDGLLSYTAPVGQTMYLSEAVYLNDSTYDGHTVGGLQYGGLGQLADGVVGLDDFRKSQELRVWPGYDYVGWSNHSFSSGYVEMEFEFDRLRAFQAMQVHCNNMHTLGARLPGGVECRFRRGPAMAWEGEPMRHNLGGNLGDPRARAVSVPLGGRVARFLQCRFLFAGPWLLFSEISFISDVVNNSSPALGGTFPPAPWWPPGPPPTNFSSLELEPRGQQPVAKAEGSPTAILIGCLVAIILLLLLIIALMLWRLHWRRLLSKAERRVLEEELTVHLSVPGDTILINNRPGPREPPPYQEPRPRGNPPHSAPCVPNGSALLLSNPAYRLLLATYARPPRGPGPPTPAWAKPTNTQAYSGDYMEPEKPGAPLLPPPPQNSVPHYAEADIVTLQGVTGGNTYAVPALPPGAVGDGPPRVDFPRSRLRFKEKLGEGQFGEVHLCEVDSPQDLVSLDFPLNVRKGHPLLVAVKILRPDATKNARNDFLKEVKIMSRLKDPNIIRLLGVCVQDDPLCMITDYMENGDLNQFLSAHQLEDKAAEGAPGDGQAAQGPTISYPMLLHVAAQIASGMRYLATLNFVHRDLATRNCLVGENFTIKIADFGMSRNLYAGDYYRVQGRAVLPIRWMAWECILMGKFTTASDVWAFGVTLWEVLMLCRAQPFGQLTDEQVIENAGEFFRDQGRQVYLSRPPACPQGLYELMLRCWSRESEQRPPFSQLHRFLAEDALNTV

## CNC(=O)Nc1ccc2c(c1)CC[C@@]21OC(=O)N(CC(=O)N(Cc2ccc(F)cc2)[C@@H](C)C(F)(F)F)C1=O [A-485]
[1]
  Activity: 9%
[2]
  IC50: > 10 µM
[3]
  IC50: > 10 µM
[4]
  IC50: > 10 µM
[5]
  IC50: > 10 µM
[6]
  IC50: > 10 µM
[7]
  IC50: > 10 µM
[8]
  IC50: > 10 µM
[9]
  IC50: > 10 µM
[10]
  IC50: > 10 µM
[11]
  IC50: > 10 µM
[12]
  IC50: > 10 µM
[13]
  IC50: > 10 µM
[14]
  IC50: > 10 µM
[15]
  IC50: > 10 µM
[16]
  IC50: > 10 µM
[17]
  EC50: 1.79 µM
[18]
  EC50: 2.34 µM
[19]
  EC50: 5.92 µM
[20]
  EC50: > 10 µM
[21]
  EC50: 0.37 µM
[22]
  EC50: 0.57 µM
[23]
  EC50: 2.26 µM
[24]
  EC50: > 10 µM
[25]
  EC50: 0.4 µM
[26]
  EC50: > 10 µM
[27]
  EC50: > 10 µM
[28]
  EC50: 4.59 µM
[29]
  EC50: 4.85 µM
[30]
  EC50: 0.51 µM
[31]
  EC50: 0.48 µM
[32]
  EC50: 0.49 µM
[33]
  EC50: 0.55 µM
[34]
  EC50: 0.72 µM
[35]
  EC50: 0.92 µM
[36]
  EC50: 1.33 µM
[37]
  EC50: 2.46 µM
[38]
  EC50: > 10 µM
[39]
  EC50: 2.03 µM
[40]
  EC50: > 10 µM
[41]
  ΔTm: 5.8 °C
[42]
  inhibition: Active
[43]
  Kp at 24 h: 0.03
